# How the values were obtained:
# [1] = target: T1, beta-catenin-B-cell lymphoma 9 protein complex (Homo sapiens, UniProt P35222); assay: Inhibition of C-terminal 6x-histidine tagged beta-catenin (138 to 686 residues) (unknown origin) expressed in Escherichia coli BL21 DE3 /human BCL9 (350 to 375 residues) protein-protein interactions incubated for 1 hr by Alpha-screen assay
# T1 sequence (P35222 whole entry): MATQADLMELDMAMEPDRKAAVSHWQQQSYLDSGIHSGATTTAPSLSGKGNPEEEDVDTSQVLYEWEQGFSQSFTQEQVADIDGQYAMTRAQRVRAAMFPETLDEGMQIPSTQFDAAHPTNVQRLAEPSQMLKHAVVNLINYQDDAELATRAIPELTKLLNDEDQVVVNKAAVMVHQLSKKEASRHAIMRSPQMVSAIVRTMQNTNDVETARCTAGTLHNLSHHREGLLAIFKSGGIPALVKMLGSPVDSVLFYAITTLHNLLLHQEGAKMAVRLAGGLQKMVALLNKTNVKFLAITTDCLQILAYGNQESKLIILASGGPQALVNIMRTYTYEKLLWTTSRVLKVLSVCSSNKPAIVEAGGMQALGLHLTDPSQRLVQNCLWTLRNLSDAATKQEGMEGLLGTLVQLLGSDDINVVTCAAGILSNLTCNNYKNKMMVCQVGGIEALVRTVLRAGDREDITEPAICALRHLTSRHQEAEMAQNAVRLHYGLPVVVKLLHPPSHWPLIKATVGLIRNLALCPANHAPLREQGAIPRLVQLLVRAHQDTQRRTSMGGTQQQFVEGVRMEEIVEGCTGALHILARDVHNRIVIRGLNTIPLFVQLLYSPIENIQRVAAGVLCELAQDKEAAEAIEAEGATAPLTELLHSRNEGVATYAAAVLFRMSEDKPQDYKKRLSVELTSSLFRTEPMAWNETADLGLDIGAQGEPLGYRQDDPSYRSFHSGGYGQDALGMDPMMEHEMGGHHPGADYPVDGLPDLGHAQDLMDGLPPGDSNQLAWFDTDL
# T1 sequence (O00512 whole entry): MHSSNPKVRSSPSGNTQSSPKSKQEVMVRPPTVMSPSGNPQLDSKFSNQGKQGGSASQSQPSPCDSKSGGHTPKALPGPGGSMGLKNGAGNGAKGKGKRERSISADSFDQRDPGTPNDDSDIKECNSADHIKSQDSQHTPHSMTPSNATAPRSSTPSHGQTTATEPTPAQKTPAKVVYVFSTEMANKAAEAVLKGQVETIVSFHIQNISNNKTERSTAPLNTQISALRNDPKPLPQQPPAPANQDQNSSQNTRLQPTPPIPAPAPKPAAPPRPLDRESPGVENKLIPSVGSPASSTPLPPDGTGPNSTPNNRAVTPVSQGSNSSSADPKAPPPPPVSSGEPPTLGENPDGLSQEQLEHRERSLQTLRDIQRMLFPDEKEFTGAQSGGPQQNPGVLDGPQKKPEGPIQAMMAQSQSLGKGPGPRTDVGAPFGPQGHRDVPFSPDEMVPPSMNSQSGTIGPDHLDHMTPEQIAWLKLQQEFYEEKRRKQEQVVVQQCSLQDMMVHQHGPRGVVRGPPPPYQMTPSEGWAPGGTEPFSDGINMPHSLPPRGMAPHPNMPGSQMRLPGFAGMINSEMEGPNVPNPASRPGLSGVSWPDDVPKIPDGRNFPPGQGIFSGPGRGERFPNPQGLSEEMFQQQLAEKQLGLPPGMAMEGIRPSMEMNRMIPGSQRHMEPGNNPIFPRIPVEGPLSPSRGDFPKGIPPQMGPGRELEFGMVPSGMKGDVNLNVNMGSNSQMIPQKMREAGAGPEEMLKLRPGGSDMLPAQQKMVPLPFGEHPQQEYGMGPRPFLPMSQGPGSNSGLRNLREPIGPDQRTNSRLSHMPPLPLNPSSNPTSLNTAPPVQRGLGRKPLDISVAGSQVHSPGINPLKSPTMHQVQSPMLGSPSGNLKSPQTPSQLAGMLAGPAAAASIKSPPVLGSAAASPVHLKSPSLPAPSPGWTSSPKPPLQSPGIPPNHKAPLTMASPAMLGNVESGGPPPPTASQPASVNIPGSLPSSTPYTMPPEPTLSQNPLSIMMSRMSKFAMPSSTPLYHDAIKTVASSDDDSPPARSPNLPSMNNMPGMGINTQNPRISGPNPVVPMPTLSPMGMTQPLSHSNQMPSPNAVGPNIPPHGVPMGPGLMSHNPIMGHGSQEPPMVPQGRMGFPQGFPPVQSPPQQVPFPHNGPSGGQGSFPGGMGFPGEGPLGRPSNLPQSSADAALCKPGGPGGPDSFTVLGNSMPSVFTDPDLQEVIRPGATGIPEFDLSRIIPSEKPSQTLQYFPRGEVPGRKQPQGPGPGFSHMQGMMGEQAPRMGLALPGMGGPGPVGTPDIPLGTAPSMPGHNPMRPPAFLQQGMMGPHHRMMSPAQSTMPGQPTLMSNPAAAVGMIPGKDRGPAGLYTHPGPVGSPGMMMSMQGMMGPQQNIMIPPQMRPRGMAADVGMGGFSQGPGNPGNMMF
# HT-29 = assay: Cytotoxicity in human HT-29 cells assessed as reduction in cell viability incubated for 72 hrs by MTS assay; format: functional, cell-based; conditions: for IC50: HT-29, 72 h
# SW480 [2] = assay: Cytotoxicity in human SW480 cells assessed as reduction in cell viability incubated for 72 hrs by MTS assay; format: functional, cell-based; conditions: for IC50: SW480, 72 h
# Homo sapiens = species on record: Homo sapiens; assay: Selectivity index, ratio of Ki for inhibition of C-terminal 6x-histidine tagged beta-catenin (138 to 686 residues) (unknown origin) expressed in Escherichia coli BL21 DE3/N-terminally biotinylated human E-cadherin (824 to 877 residues) protein-protein interactions by Alpha-screen assay to Ki for …
# HCT-116 = assay: Cytotoxicity in human HCT116 cells assessed as reduction in cell viability incubated for 72 hrs by MTS assay; format: functional, cell-based; conditions: for IC50: HCT-116, 72 h
# MDA-MB-231 = assay: Cytotoxicity in human MDA-MB-231 cells assessed as reduction in cell viability incubated for 72 hrs by MTS assay; format: functional, cell-based; conditions: for IC50: MDA-MB-231, 72 h
# A549 = assay: Cytotoxicity in human A549 cells assessed as reduction in cell viability incubated for 72 hrs by MTS assay; format: functional, cell-based; conditions: A549, 72 h
# MCF-10A = assay: Cytotoxicity in human MCF10A cells assessed as reduction in cell viability incubated for 72 hrs by MTS assay; format: cell-based
# SW480 [3] = assay: Inhibition of anchorage-independent growth in human SW480 cells incubated fro 18 days by crystal violet staining based assay; format: functional, cell-based
# [4] = target: beta-catenin-B-cell lymphoma 9 protein complex (Homo sapiens, UniProt P35222, D145A/E155A); assay: Inhibition of inhibited beta-catenin D145A/E155A mutant (unknown origin) expressed in Escherichia coli BL21 DE3 /human BCL9 (350 to 375 residues) protein-protein interactions by Alpha-screen assay
# [5] = target: beta-catenin-B-cell lymphoma 9 protein complex (Homo sapiens, UniProt P35222, D145A); assay: Inhibition of inhibited beta-catenin D145A mutant (unknown origin) expressed in Escherichia coli BL21 DE3 /human BCL9 (350 to 375 residues) protein-protein interactions by Alpha-screen assay
Ki [1] [µM],Ratio Ki (Homo sapiens),SMILES,IC50 (SW480 [2]) [µM],IC50 (HCT-116) [µM],IC50 (MDA-MB-231) [µM],further results
,16,O=C(Nc1ccc(OC2CNC2)c(-c2ccc(F)cc2)c1)c1ccc(OC2CNC2)c(-c2ccc(F)c(F)c2)c1,,,,
8.71,30,O=C(Nc1ccc(O[C@H]2CCNC2)c(-c2ccc(F)c(F)c2)c1)c1ccc(O[C@H]2CCNC2)c(-c2ccc(F)c(F)c2)c1,,,,
6.65,35,O=C(Nc1ccc(O[C@H]2CCNC2)c(-c2ccc(F)cc2)c1)c1ccc(O[C@H]2CCNC2)c(-c2ccc(F)cc2)c1,9.86,8.23,7.05 to 8.35,IC50 (A549): 18.8 µM; IC50 (MCF-10A): 19.9 µM

# The remaining lines, values behind:
SMILES,Ki [1] [µM],Ratio Ki (Homo sapiens),IC50 (SW480 [2]) [µM],IC50 (HCT-116) [µM],IC50 (MDA-MB-231) [µM],further results
NCCOc1ccc(NC(=O)c2ccc(OCCN)c(-c3ccc(F)cc3)c2)cc1-c1ccc(F)cc1,11.6,,,,,
CC(C)c1cc2c(c(O)c1O)[C@@]1(C(=O)O)CCCC(C)(C)[C@@H]1CC2 [CARNOSIC ACID],,73,10.5,8.67,,IC50 (HT-29): 20.2 µM
Cc1cc(C(=O)Nc2ccc(O[C@H]3CCNC3)c(-c3ccc(F)cc3)c2)ccc1O[C@H]1CCNC1,,,,,9.03,
NCCOc1ccc(NC(=O)c2ccc(OCCN)c(-c3ccc(F)c(F)c3)c2)cc1-c1ccc(F)cc1,,38,,,,
O=C(NCCCC(=O)N1CCNCC1)c1ccc(-c2cc(C(=O)Nc3ccc(O[C@H]4CCNC4)c(-c4ccc(F)cc4)c3)ccc2O[C@H]2CCNC2)cc1,,345,,,,
O=C(Nc1ccc(O[C@H]2CCNC2)c(-c2ccc(F)cc2)c1)c1ccc(O[C@H]2CCNC2)c(-c2ccc3ccccc3c2)c1,,,,,220,
O=C(Nc1ccc(O[C@H]2CCNC2)c(-c2ccc(F)cc2)c1)c1ccc(O[C@H]2CCNC2)c(-c2ccc(F)c(F)c2)c1,,,3.5,3.07,2.32 to 2.47,inhibition (SW480 [3]): Dose-dependent effect; IC50 (A549): 8.79 µM; inhibition (HT-29): Dose-dependent effect; IC50 (HT-29): 2.97 µM; inhibition (MDA-MB-231): Dose-dependent effect; inhibition (SW480 [2]): Dose-dependent effect; IC50 (MCF-10A): 9.07 µM; Ki [4]: 96.6 µM; Ki [5]: 13.4 µM; inhibition (HCT-116): Dose-dependent effect
